Experimental data from a melting point compilation (Tetko et al.; mined from patent text by program, amines drawn as free bases though some values may be those of a salt).

SMILES	melting point [°C]
O=C(O)CNC(=O)N1CCc2cc(S(=O)(=O)N3CCN(c4cccc(Cl)c4)CC3)ccc21	214
CCCc1nc2c(N)nc3ccccc3c2n1CCCCNC(=O)Nc1ccccc1	183 to 184
CCOC(O)C(F)(F)C(F)(F)C(F)(F)C(F)(F)C(O)OCC (stereo not drawn)	110 to 111
CC(C)(C)C1=CC(=C(C#N)C#N)C=C(c2cccs2)S1(=O)=O	164 to 165
Cc1ccc(S(=O)(=O)OCC2COc3ccc4c(=O)ccoc4c3O2)cc1 (stereo not drawn)	190 to 191
CC(C)(C)OC(=O)N[C@@H](Cc1c[nH]c2ccccc12)c1nc2c(C(F)(F)F)cccc2c(O)c1C(=O)Nc1nccs1	270
CC(=O)N(C(C)=O)c1c(Cl)c(C)nn1C(CCN1C(=O)c2ccccc2C1=O)=NOS(=O)(=O)c1ccc(C)cc1	143 to 147
c1cc2c(cc1-c1nnc(SCC3CC3)o1)CCO2	57 to 58
Cn1cnc(COc2nn3c(-c4ccccc4)nnc3cc2-c2ccc(Cl)s2)n1	248 to 250
CCCCN(CCCC)Cc1nnc(-c2ncn3c2CN(C)C(=O)c2c(Cl)cccc2-3)o1	105 to 108
CCSC(c1ccc(Cl)cc1Cl)C(C(O)C(C)(C)CF)n1cncn1 (stereo not drawn)	182
N[C@@H](CN1CCC(=C2c3ccccc3CCc3ccccc32)CC1)C(=O)O	150 to 151
Cc1nc(-c2cc(C(C)(C)C)c(O)c(C(C)(C)C)c2)no1	126 to 127
CC=Cc1c(N)nc(-c2ccc(C(F)(F)F)cc2)nc1C(=O)OC	123 to 125
CC(=O)N1CCC(Br)(C(=O)c2ccc(F)cc2)CC1	156 to 159
CCOc1ccc(Nc2ncc3c(n2)N(c2ccccc2)C(=O)N(c2c(Cl)cccc2Cl)C3)cc1	224 to 226
O=S(=O)(/C=C/c1ccc(Br)cc1)CS(=O)(=O)/C=C/c1ccc(Br)cc1	213 to 215
O=C(O)CCC12CC(c3ccccc31)c1ccccc12	185 to 189
O=c1oc(-c2ccccc2Cl)cc(O)c1SCc1ccccc1	99 to 101
C[C@@H]1S[C@@H](C(=O)Nc2ccc(Cn3oc(=O)[nH]c3=O)cc2)Cc2cc3c(cc2C1=O)OCO3	237 to 239
O=C(O)COc1cc(Cl)ccc1C(=O)NCc1ccc(OC(F)(F)F)cc1	184 to 185
CCC1(CC)CN(C(C)(C)C)C(=O)C(C)(CC)N1OC(C)c1ccccc1 (stereo not drawn)	76 to 79
Cc1cc(C#N)c(C)c(C(=O)Nc2ccc(C#N)cn2)n1	216
Clc1ccc(-c2cc(C3CCNCC3)n[nH]2)cc1	174 to 176

SMILES	melting point [°C]
CS(=O)(=O)c1ccc(Oc2ccc(Cl)cc2)cc1	109 to 111
Cc1c(-c2ccccc2)n(-c2ccc(S(C)=O)cc2)c(-c2ccccc2)cc1=O (stereo not drawn)	242 to 244
COc1ccc2c(C(=O)C(F)(F)F)c[nH]c2c1	206 to 208
O=c1c2ccc(O)cc2oc2c(O)c(O)ccc12	> 300
NS(=O)(=O)Oc1ccccc1Cl	62.5 to 63.5
Cc1oc(-c2ccco2)nc1COc1ccc(COc2nn(Cc3ccc(OCc4nc(-c5ccco5)oc4C)cc3)cc2C(=O)O)cc1	144 to 145
C[C@]1(CN2CCN(C(=O)NC3CCCCC3)CC2)Cn2cc([N+](=O)[O-])nc2O1	98 to 101
COc1cc(COc2nn(-c3ccccc3)cc2C=O)ccc1OCc1nc(N2CCOCC2)sc1C	149 to 150
CC1(C)C(=NOCc2ccccc2)C(c2ccc(S(C)(=O)=O)cc2)=C1c1ccccc1	56 to 61
COCCN1CCc2cc(Nc3ncc(Cl)c(Nc4ccccc4S(=O)(=O)N(C)C)n3)c(OC)cc2CC1	54 to 64
COc1ccc(-n2nc(C(C)(C)C)cc2NC(=O)c2nccc3cc(Oc4cc(Cl)ncn4)ccc23)cc1	156
O=C(NC1CCCC1)c1ccc(CCN2CC=C(c3c[nH]c(-c4ccc(F)cc4)c3-c3ccncc3)CC2)cc1	192 to 195
O=C(O)CCCOc1cccc2occc12	91 to 93
C=CCOc1ccc(C(=O)Oc2ccc(O)cc2)cc1	146
Cc1ccc(-n2nc(C)c(NC(N)=S)c2C)cc1	240 to 241
Cc1ccc(C2C(=O)NC(=O)NC2=O)cc1	271
COc1cccc(-c2c(F)c(F)c(N)c(F)c2F)c1	94 to 96
COc1ccc(Oc2ccc(C(C)=C3SCCCS3=O)cc2)cc1 (stereo not drawn)	136 to 138
COc1ccc(Cl)cc1-c1c(CCO)c(=O)[nH]c2ccc(C(F)(F)F)cc12	216 to 217
Cc1nc(O)c(F)c(Cl)n1	214 to 216
CCCCOc1ccc(S(=O)(=O)C2(C(=O)NO)CCN(CCOc3ccccc3)CC2)cc1	112
CCCCC(=O)c1c(CN(CC)C(C)(C)C)nc2cc(OC)c(OC)cc2c1-c1ccc(OC)c(OC)c1	137 to 139
Cc1cc(NC(N)=O)cc(C)c1NC(=O)CN1CCN(CCCC(c2ccc(F)cc2)c2ccc(F)cc2)C(C(N)=O)C1 (stereo not drawn)	142
CC(=O)Nc1scc(C(C)(C)C)c1C(N)=O	251
